Experimental data published in US20190337924A1, “SUBSTITUTED HYDANTOIN AND THIOHYDANTOIN DERIVATIVES AS ANDROGEN RECEPTOR ANTAGONISTS” (Janssen Pharmaceutica NV, priority 2016, published 2019).
pEC50: −log10 of the molar value. Where a name gives a salt, the structure may show the parent alone. Read-outs that look alike come from different tables or passages of the source.

Molecular target: T1, F876L mutant Androgen Receptor (AR-F876L) (Homo sapiens, UniProt P10275, F877L)
T1 construct: expressed in transfected cells; host or cells: LNCaP
T1 sequence (P10275 1-920 F877L): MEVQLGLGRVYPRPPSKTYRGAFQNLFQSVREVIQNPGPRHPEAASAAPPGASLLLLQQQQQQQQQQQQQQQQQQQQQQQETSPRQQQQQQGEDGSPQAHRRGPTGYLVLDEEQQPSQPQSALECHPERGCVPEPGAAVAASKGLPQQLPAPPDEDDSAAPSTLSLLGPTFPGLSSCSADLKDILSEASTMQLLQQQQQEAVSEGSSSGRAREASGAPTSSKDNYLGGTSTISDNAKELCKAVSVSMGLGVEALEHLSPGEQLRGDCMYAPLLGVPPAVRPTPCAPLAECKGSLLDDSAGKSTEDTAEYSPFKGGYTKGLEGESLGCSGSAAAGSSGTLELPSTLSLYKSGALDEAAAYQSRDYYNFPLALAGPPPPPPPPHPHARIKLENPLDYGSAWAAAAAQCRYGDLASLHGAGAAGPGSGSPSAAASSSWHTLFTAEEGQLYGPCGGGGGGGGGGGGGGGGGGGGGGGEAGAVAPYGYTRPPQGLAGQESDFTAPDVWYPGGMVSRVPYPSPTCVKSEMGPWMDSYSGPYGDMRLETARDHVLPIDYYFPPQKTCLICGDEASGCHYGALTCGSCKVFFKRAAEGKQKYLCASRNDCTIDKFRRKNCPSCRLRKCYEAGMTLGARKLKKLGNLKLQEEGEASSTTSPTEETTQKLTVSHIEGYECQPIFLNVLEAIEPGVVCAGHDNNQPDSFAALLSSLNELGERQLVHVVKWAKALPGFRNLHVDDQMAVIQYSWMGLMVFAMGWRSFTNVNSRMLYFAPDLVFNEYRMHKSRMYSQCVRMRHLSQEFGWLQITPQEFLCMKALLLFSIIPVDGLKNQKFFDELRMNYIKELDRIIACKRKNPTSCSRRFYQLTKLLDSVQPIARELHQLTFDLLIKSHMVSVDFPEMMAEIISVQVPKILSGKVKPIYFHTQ
Experiment: AR reporter assay, LNCaP-AR-F876L AG (agonist mode)
Type: cell-based
Conditions: for Emax: read-out: LNCaP-AR-F876L AG MAX % Stim
Source text: LNCaP AR (cs) and LNCaP F876L luciferase cell lines were generated by transduction of each cell line (description of cell line generation Joseph J D, Lu N, Qian J, Sensintaffar J, Shao G, Brigham D, Moon M, Maneval E C, Chen I, Darimont B, Hager J H. A clinically relevant androgen receptor mutation confers resistance to second-generation antiandrogens enzalutamide and ARN-509. Cancer Discov 2013; 3:1020-1029) with an Androgen Response Element Firefly Luciferase lentiviral construct at an MOI (multiplicity of infection) of 50 following the manufacturer's instructions (Qiagen). A stable pooled-population cell line was generated using puromycin (Life Technologies) selection at 1:10,000 v/v. The protocol below was used for both cell lines and for testing of the compounds of Formula (I) of the present invention.
LNCaP cells were grown to about 80% confluence, media removed and cells rinsed in Hank's balanced salt solution prior to separation from the plate with 0.05% Trypsin EDTA. Cells were lifted and trypsin negated in complete CSS (charcoal stripped serum) culture media. CSS was maintained on cells for 24 h prior to assay, at which time 5,000 cells/[…] were seeded in Greiner 384 well White/White Tissue Culture Treated Plates and incubated for a further 1-2 hours at 37° C., 5% CO2, prior to addition of 10 μL of 4× Test Compounds (compounds described herein) or Assay Controls (all diluted in complete media containing 10% css). A further 10 μL of 4× R-1881 Agonist Challenge (antagonist assay) or Buffer (agonist assay) was then added (all diluted in complete media containing 10% css). Agonist challenge was at 400 pM for WT assay and 600 pM for F876L assay. Plates containing cells and compounds herein were incubated for a further 20-24 hours at 37° C., 5% CO2 before addition of 40 μL/well of Steady-Glo Luciferase Assay System Reagent (Promega#E2520). After 1 h, plates were read for luminescence on a BMG Pherastar.
((Sample RLU−Ave Low Control RLU[DMSO/Buffer])/(Ave High Control RLU [1 μM R-1881]—Ave Low Control RLU[DMSO/Buffer]))*100.
EC/IC50 calculations were achieved utilizing calculated RLU data and data fitting macros. Data were fit using least-squares methods to the following formula: […]
As used herein: • pIC50 is defined as −Log10(IC50 expressed in [Molar]). • pEC50 is defined as −Log10(EC50 expressed in [Molar]). • MAX % Inh is defined as the maximum % inhibition of R1881 control response observed for a compound over the tested concentration range. • MAX % Stim is defined as the maximum % stimulation (agonist response) observed for a compound over the tested concentration range. • LNCaP-AR-wt ANT refers to the reporter assay using LNCaP cells stably transfected with the Androgen Response Element Firefly Luciferase lentiviral construct and wild-type Androgen Receptor (AR-wt) in Antagonist mode. • LNCaP-AR-wt AG refers to the reporter assay using LNCaP cells stably transfected with the Androgen Response Element Firefly Luciferase lentiviral construct and wild-type Androgen Receptor (AR-wt) in Agonist mode. • LNCaP-AR-F876L ANT refers to the reporter assay using LNCaP cells stably transfected with the Androgen Response Element Firefly Luciferase lentiviral construct and F876L mutant Androgen Receptor (AR-F876L) in Antagonist mode. • LNCaP-AR-F876L AG refers to the reporter assay using LNCaP cells stably transfected with the Androgen Response Element Firefly Luciferase lentiviral construct and F876L mutant Androgen Receptor (AR-F876L) in Agonist mode.

Structure (SMILES) | pEC50 | Emax | EC50 (agonist mode (buffer, no R-1881), -Log10(EC50 in Molar), read-out: LNCaP-AR-F876L AG pEC50 (converted))
CN1CCC(Oc2ccc(N3C(=S)N(c4ccc(C#N)c(C(F)(F)F)c4)C(=O)C34CCC4)cn2)CC1 [Compound 14, 4-(5-(6-((1-Methylpiperidin-4-yl)oxy)pyridin-3-yl)-8-oxo-6-thioxo-5,7-diazaspiro[3.4]octan-7-yl)-2-(trifluoromethyl)benzonitrile] | < 4.82 | 0.1% | –
CC1(C)C(=O)N(c2ccc(C#N)c(Cl)c2)C(=S)N1c1ccc(OC2CCNCC2)cc1 [Compound 7, 2-Chloro-4-(4,4-dimethyl-5-oxo-3-(4-(piperidin-4-yloxy)phenyl)-2-thioxoimidazolidin-1-yl)benzonitrile hydrochloride] | < 4.82 | -0.1% | –
N#Cc1ccc(N2C(=O)C3(CCC3)N(c3ccc(OC4CCNCC4)nc3)C2=S)cc1Cl [Compound 23, 2-Chloro-4-(8-oxo-5-(6-(piperidin-4-yloxy)pyridin-3-yl)-6-thioxo-5,7-diazaspiro[3.4]octan-7-yl)benzonitrile hydrochloride] | < 4.82 | 0.3% | –
CN1CCC(Oc2ccc(N3C(=S)N(c4ccc(C#N)c(Cl)c4)C(=O)C3(C)C)cn2)CC1 [Compound 10, 2-Chloro-4-(4,4-dimethyl-3-(6-((1-methylpiperidin-4-yl)oxy)pyridin-3-yl)-5-oxo-2-thioxoimidazolidin-1-yl)benzonitrile hydrochloride] | < 4.82 | 0.1% | –
CC1(C)C(=O)N(c2ccc(C#N)c(C(F)(F)F)c2)C(=S)N1c1ccc(OC2CCNCC2)cc1 [Compound 1, 4-(4,4-Dimethyl-5-oxo-3-(4-(piperidin-4-yloxy)phenyl)-2-thioxoimidazolidin-1-yl)-2-(trifluoromethyl)benzonitrile] | < 4.82 | -0.1% | –
CC1(C)C(=O)N(c2ccc(C#N)c(Cl)c2)C(=S)N1c1ccc(OC2CCNCC2)nc1 [Compound 9, 2-Chloro-4-(4,4-dimethyl-5-oxo-3-(6-(piperidin-4-yloxy)pyridin-3-yl)-2-thioxoimidazolidin-1-yl)benzonitrile hydrochloride] | < 4.82 | 0% | –
N#Cc1ccc(N2C(=O)C3(CCC3)N(c3ccc(OC4CCNCC4)cc3)C2=S)cc1Cl [Compound 21, 2-Chloro-4-(8-oxo-5-(4-(piperidin-4-yloxy)phenyl)-6-thioxo-5,7-diazaspiro[3.4]octan-7-yl)benzonitrile] | < 4.82 | 0.2% | –
CN1CCC(Oc2ccc(N3C(=S)N(c4ccc(C#N)c(Cl)c4)C(=O)C34CCC4)cn2)CC1 [Compound 24, 2-Chloro-4-(5-(6-((1-methylpiperidin-4-yl)oxy)pyridin-3-yl)-8-oxo-6-thioxo-5,7-diazaspiro[3.4]octan-7-yl)benzonitrile hydrochloride] | < 4.82 | 0.1% | –
CN1CCC(Oc2ccc(N3C(=S)N(c4ccc(C#N)c(Cl)c4)C(=O)C34CCC4)cc2)CC1 [Compound 22, 2-Chloro-4-(5-(4-((1-methylpiperidin-4-yl)oxy)phenyl)-8-oxo-6-thioxo-5,7-diazaspiro[3.4]octan-7-yl)benzonitrile] | < 4.82 | 0% | –
CN1CCC(Oc2ccc(N3C(=S)N(c4ccc(C#N)c(C(F)(F)F)c4)C(=O)C3(C)C)cc2)CC1 [Compound 2, 4-(4,4-Dimethyl-3-(4-((1-methylpiperidin-4-yl)oxy)phenyl)-5-oxo-2-thioxoimidazolidin-1-yl)-2-(trifluoromethyl)benzonitrile hydrochloride] | < 4.82 | 0.1% | –
CC1(C)C(=O)N(c2ccc(C#N)c(C(F)(F)F)c2)C(=S)N1c1cnc(OC2CCNCC2)nc1 [Compound 5, 4-(4,4-Dimethyl-5-oxo-3-(2-(piperidin-4-yloxy)pyrimidin-5-yl)-2-thioxoimidazolidin-1-yl)-2-(trifluoromethyl)benzonitrile] | < 4.82 | 0% | –
N#Cc1ccc(N2C(=O)C3(CCC3)N(c3ccc(OC4CCNCC4)cc3)C2=S)cc1C(F)(F)F [Compound 11, 4-(8-Oxo-5-(4-(piperidin-4-yloxy)phenyl)-6-thioxo-5,7-diazaspiro[3.4]octan-7-yl)-2-(trifluoromethyl)benzonitrile] | < 4.82 | 0.1% | –
CC1(C)C(=O)N(c2ccc(C#N)c(C(F)(F)F)c2)C(=S)N1c1ccc(OC2CCNCC2)nc1 [Compound 3, 4-(4,4-Dimethyl-5-oxo-3-(6-(piperidin-4-yloxy)pyridin-3-yl)-2-thioxoimidazolidin-1-yl)-2-(trifluoromethyl)benzonitrile hydrochloride] | < 4.82 | 0.3% | –
COc1cc(N2C(=O)C3(CCC3)N(c3ccc(OC4CCN(C)CC4)cc3)C2=S)ccc1C#N [Compound 19, 2-Methoxy-4-(5-(4-((1-methylpiperidin-4-yl)oxy)phenyl)-8-oxo-6-thioxo-5,7-diazaspiro[3.4]octan-7-yl)benzonitrile] | < 4.82 | 0.3% | –
CN1CCC(Oc2ccc(N3C(=S)N(c4ccc(C#N)c(C(F)(F)F)c4)C(=O)C34CCC4)cc2)CC1 [Compound 12, 4-(5-(4-((1-Methylpiperidin-4-yl)oxy)phenyl)-8-oxo-6-thioxo-5,7-diazaspiro[3.4]octan-7-yl)-2-(trifluoromethyl)benzonitrile] | < 4.82 | 0.2% | –
CN1CCC(Oc2ccc(N3C(=S)N(c4ccc(C#N)c(Cl)c4)C(=O)C3(C)C)cc2)CC1 [Compound 8, 2-Chloro-4-(4,4-dimethyl-3-(4-((1-methylpiperidin-4-yl)oxy)phenyl)-5-oxo-2-thioxoimidazolidin-1-yl)benzonitrile hydrochloride] | < 4.82 | 0.1% | –
N#Cc1ccc(N2C(=O)C3(CCC3)N(c3cnc(OC4CCNCC4)nc3)C2=S)cc1C(F)(F)F [Compound 15, 4-(8-Oxo-5-(2-(piperidin-4-yloxy)pyrimidin-5-yl)-6-thioxo-5,7-diazaspiro[3.4]octan-7-yl)-2-(trifluoromethyl)benzonitrile] | < 4.82 | -0.1% | –
Cc1cc(N2C(=O)C3(CCC3)N(c3ccc(OC4CCN(C)CC4)nc3)C2=S)ccc1C#N [Compound 18, 2-Methyl-4-(5-(6-((1-methylpiperidin-4-yl)oxy)pyridin-3-yl)-8-oxo-6-thioxo-5,7-diazaspiro[3.4]octan-7-yl)benzonitrile] | – | 2.6% | > 15.1 µM
